One may read the half-life as how long it takes for the measured level to halve. A higher half-life goes with slow loss. As a reminder, the AUC(0-inf) is total exposure, with the tail of the curve extrapolated. High values mean high exposure, low ones low exposure. One may read the AUC(0-t) as exposure summed from dosing to a finite time, without extrapolation to infinity. Read a low AUC(0-t) as less exposure. Usually Cmax stands for the highest concentration seen after dosing. For orientation: Tmax means the time at which the peak concentration occurs.

The structures appear in SMILES notation.

The source of these data is article PMC12195660, “Preparation and Evaluation of an Oral Administration System of Albendazole-Metal-Organic Framework Based on Dual Response to pH and Enzymes” (Pharmaceuticals, 2025).

The series in a line: In vivo pharmacokinetic study after intragastric administration in rats. As to conditions: both sexes, Wistar, rat, po, 25 mg·kg^−1 of ABZ. Here is the method:
Eighteen Wistar rats were selected and divided into three groups, with half of them being male and the other half being female. Each group was given a dose of 25 mg·kg^−1 of ABZ by intragastric administration. Blood samples of 200–500 μL were collected from each rat at 0.5, 1, 2, 4, 6, 8, 10, 12, and 24 h after administration and were placed into pre-prepared anticoagulant centrifuge tubes. The samples were centrifuged at 13,000 rpm for 10 min, and the upper plasma was collected and stored at −80 °C in an ultra-low temperature refrigerator.
For sample preparation, plasma was thawed, and 50 μL of plasma was mixed with 150 μL of methanol. The mixture was vortexed for 1 min and then centrifuged at 13,000 rpm for 10 min. The supernatant (135 μL) was collected, followed by the addition of 200 ng·mL^−1 mebendazole as the internal standard. The sample was vortexed for 1 min and then filtered through a microporous membrane. The drug content was quantified using UHPLC-MS/MS (UltiMate 3000 and Q-Exactive Orbitrap MS, Thermo Scientific, USA). Pharmacokinetic parameters were calculated using DAS 2.0 software.
Chromatographic conditions: An Accucore aQ UHPLC column (150 mm × 2.1 mm × 2.5 μm) was used. The column temperature was maintained at 40 ± 1 °C, and the sample tray was kept at 15 ± 0.5 °C. The mobile phase consisted of acetonitrile (A) and water with 0.1% formic acid (B). The elution gradient was as follows: 0–5 min, 95% B. The injection volume was 1 μL, and the flow rate was set to 0.3 mL·min^−1.
Mass spectrometry conditions: Electrospray ionization (ESI) was used with high-purity nitrogen (purity > 99.9%) as the carrier gas. The sheath gas flow rate was 35 Arb, and the auxiliary gas flow rate was 10 Arb. The capillary temperature was set to 320 °C, with the ion lens (S-lens RF level) voltage frequency at 60. The spray voltage was 3.0 kV (positive mode), and full MS positive switching scanning mode was employed, with a scanning range of 150–800.

The compound `CCCSc1ccc2nc(NC(=O)OC)[nH]c2c1` [ABZ, albendazole] showed a half-life (in vivo, n = 6) of 2 ± 0.38 h. Also, under “plasma, n = 6”, the AUC(0-inf) amounted to 220 ± 25.3 ng·h/mL, the AUC(0-t) was determined as 216 ± 27.6 ng·h/mL, the Cmax came to 34.1 ± 5.19 ng/mL and the Tmax is 2 ± 0.38 h. The MRT last (plasma, n = 6, read-out: MRT0–t) was found to be 6.16 ± 0.36 h. Moreover, under “plasma, n = 6, read-out: MRT0–∞”, the MRT inf was 6.55 ± 0.37 h.
